This is an account of results in US11458141B2, “Aryl hydrocarbon receptor (AhR) agonists for the prevention and treatment of inflammatory disorders” (The Johns Hopkins University, priority 2017, dated 2022).

One assay relates to Tlr4 mRNA in the ileum. Nature of the assay: Ileal Tlr4 mRNA and microRNA expression in neonatal mice given I3C. The class given is in vivo, mouse. The following applies: 7-day-old mice, 25 mg/kg oral gavage, after 24 hours. How it is done: Neonatal mice at the age of 7 days old were given AHR agonist […] (25 mg/kg) via oral gavage, and the ileal expression of Tlr4 mRNA and microRNAs, which have been reported to down-regulate Tlr4 transcription, were quantified after 24 hours. Referring now to FIG. 24, the mRNA expression of Tlr4 was quantified in the ileum of neonatal mice treated with AHR agonist […]. Data are represented as mean±SEM; *p<0.05 between indicated groups; each dot represents an individual mouse. […] Referring now to FIG. 25, the expression of let-71, miR-223, and miR-146b, which are microRNAs known to inhibit Tlr4 mRNA expression, was quantified in the ileum of neonatal mice treated with AHR agonist […]. Data are represented as mean±SEM; *p<0.05 between indicated groups; each dot represents an individual mouse.

The next assay relates to mice with NEC. The assay can be described thus: Maternal I3C administration, Tnf alpha and Il6 mRNA in ileum of offspring with NEC. The following applies: mums 25 mg/kg oral gavage E7 to P7, NEC groups. The class given is in vivo, mouse. Here is the method:
The pups whose mums received 25 mg/kg indole-3-carbinol (13C) by oral gavage starting from the embryonic age 7 (E7) of the fetus until the postnatal day 7 (P7) were included in maternal […]-rich group, while the pups whose mums received vehicle were included in maternal […]-free group. Necrotizing enterocolitis (NEC) was induced in 7-day-old mouse pups by gavage feeding and hypoxia exposure for 4 days. The ileum was harvested at the end of experiment and the mRNA expression of target genes was analyzed by qPCR. Referring now to FIG. 8, the mRNA expression of pro-inflammatory cytokine tumor necrosis factor alpha (Tnf alpha) was quantified in the ileum of experimental NEC models. Data are represented as mean±SEM; *p<0.05 between indicated groups; each dot represents an individual mouse. […] Referring now to FIG. 9, the mRNA expression of pro-inflammatory cytokine Interleukin-6 (Il6) was quantified in the ileum of experimental NEC models. Data are represented as mean±SEM; *p<0.05 between indicated groups; each dot represents an individual mouse.

Turning to `OCc1c[nH]c2ccccc12` [I3C, indole-3-carbinol], in the assay on Tlr4 mRNA in the ileum, the “expression of let-7i in the ileum” value is recorded as “significantly increased”, the “expression of miR-146b in the ileum” value is “significantly increased”, the “expression of miR-223 in the ileum” value was “significantly increased” and the “mRNA expression of Tlr4 in the ileum” value is given as “significantly reduced the expression of Tlr4 mRNA”. Also, in the assay on mice with NEC, the “Il6 mRNA expression in offspring” value was “significantly reduced the Il6 expression” and the “Tnf alpha mRNA expression in offspring” value is on record as “significantly reduced the Tnf alpha expression”.
